Laboratory results taken from patent publication US11845730B2, “1,3-substituted cyclobutyl derivatives and uses thereof” (Novartis AG, priority 2021, dated 2023).
Counter-ions that a name gives are not always drawn.

These compounds were tested against human TRPV1 (Homo sapiens (Human), UniProt Q8NER1). Conditions: read-out: IC50 (μM), antagonist effect against human TRPV1; CHO cells expressing human TrpV1; stimulated with 2.5 μM NADA (EC80); mean of at least three independent experiments.
Sequence of human TRPV1 (Q8NER1 whole entry): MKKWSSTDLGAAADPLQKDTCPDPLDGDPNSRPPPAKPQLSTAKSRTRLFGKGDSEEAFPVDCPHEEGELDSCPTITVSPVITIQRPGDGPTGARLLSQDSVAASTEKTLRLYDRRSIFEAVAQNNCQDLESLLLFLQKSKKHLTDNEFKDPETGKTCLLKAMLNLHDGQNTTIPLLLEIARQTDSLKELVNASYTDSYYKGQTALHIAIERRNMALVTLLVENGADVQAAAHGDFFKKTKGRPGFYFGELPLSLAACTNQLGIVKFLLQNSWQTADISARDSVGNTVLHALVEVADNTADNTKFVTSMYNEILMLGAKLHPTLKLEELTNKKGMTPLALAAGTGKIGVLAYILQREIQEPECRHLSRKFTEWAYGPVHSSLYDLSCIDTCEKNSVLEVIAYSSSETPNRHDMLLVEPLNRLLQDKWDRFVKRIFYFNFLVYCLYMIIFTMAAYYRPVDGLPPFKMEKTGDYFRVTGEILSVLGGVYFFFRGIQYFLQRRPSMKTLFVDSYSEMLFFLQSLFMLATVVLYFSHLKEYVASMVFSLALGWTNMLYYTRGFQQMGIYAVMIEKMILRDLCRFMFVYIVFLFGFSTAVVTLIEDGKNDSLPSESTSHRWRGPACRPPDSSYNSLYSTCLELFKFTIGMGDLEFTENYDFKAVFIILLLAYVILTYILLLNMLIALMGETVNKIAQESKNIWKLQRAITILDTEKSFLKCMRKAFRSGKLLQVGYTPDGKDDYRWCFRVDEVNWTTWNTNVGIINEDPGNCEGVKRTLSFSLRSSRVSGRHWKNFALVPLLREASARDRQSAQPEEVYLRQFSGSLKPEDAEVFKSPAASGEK
Method: Chinese Hamster Ovary (CHO) cells transfected to express human TrpV1 receptor (which are herein referred to as CHO-huTrpV1 cells), were grown in F-12 Ham's Nutrient Mixture media (HyClone SH30026.01) supplemented with 10% Fetal Bovine Serum (Invitrogen #26140-079), 1% Antibiotic/antimycotic (Invitrogen #15240-062) and 500 ug/mL geneticin (ThermoFisher scientific #1031035). Cells were grown in T-75 flasks at 37° C. incubator with 5% CO2. The cells were passaged twice a week at a ratio of 1:10 to 1:20 to maintain steady growth. For experimentation, cells were harvested at approximately 80% confluency and plated onto 384 well black cell culture plates (cat #781091, Greinier Bio-One Inc.) at 15,000 cells per well in 20 μl media and grown overnight.
The loading dye was prepared following instruction of Calcium 6 assay kit (Molecular Probes, #R8190): 10 ml buffer from bottle B was added to 1 vial of bottle A (adapted to room temperature from −20° C.) and mixed well, then 2.5 mM of fresh prepared probenecid, was added and mixed well. 20 μl/well of loading dye was added on top of the cells, and incubated at 37° C. for 1 hour 30 min.
Assay buffer preparation: 1×HBSS, 2 mM HEPES, 0.1% BSA plus 2.5 mM freshly prepared probenecid (Invitrogen, #P36400). 25 μl/well assay buffer in 384 well clear plate (cat #782281, Greiner Bio-one) was dispensed with buffer distributor (Multidrop ComB1 from Thermo Scientific). The compounds were in 384 Echo plate (cat #LPL0200, Labcyte) and the starting concentration of compound was 10 mM, then 1 to 3 serial dilution in 100% DMSO, 8 ul/well). 125 nl compounds was transferred to the 384 well plate containing 25 μl/well buffer with Echo® 555 Liquid Handler (Labcyte), such that the compound concentration was 5 fold of final concentration. The plate was shook slowly at 40 rpm/min for 10 min to mix. 10 μl of 5 fold compound in the buffer was transferred to the cell plate (containing 20 μl cells and 20 μl dye) using Vertical Pipetting Station 384ST (Agilent Technologies). Six fold of final concentration of NADA (N-arachidonyl dopamine, cat #A8848, Sigma) in the assay buffer was prepared and 30 μl/well was distributed in 384 well clear plate.
After compounds were added to the cell plate with loading dye, within 10-15 minutes, cell plate and plate containing NADA was placed into the FLIPR (Fluorescent Imaging Plate Reader) instrument (Tetra System, Molecular device). The TRPV1 receptor was stimulated by application of 10 μl per well of NADA. For testing the effect of compounds for possible antagonism, 2.5 μM NADA was used at the EC80 concentration.
For determination of antagonist IC50 values (concentration of antagonist that inhibits response to NADA by 50%), at least 10 antagonist concentration were measured in triplicate. The response in the presence of the antagonist was calculated as a percentage of the control response to NADA and was plotted against the concentration of the antagonist. The IC50 was estimated by non-linear regression analysis to sigmoidal-logistic curves by HELIOS (PROD 2) system. These values were averaged (means and standard error of the mean) for at least three independent experiments.

**Q.** `COc1ncc(O[C@H]2C[C@H](NCc3c(F)ccc4cnccc34)C2)cc1C(F)(F)F` [Example 92, (1r,3r)-N-((6-fluoroisoquinolin-5-yl)methyl)-3-((6-methoxy-5-(trifluoromethyl)pyridin-3-yl)oxy)cyclobutan-1-amine, HCl] was tested. Which IC50 did it give?
**A.** The IC50 was 0.58 µM.

**Q.** Which IC50 does the source give for `Fc1ccc2cnccc2c1CN[C@H]1C[C@H](Oc2ccc3ccccc3c2)C1` [Example 31, (1r,3r)-N-((6-fluoroisoquinolin-5-yl)methyl)-3-(naphthalen-2-yloxy)cyclobutan-1-amine, HCl] here?
**A.** Its IC50 is 0.264 µM.

**Q.** Which IC50 does the source give for `Fc1ccc2cnccc2c1CN[C@H]1C[C@H](Oc2ccc(C(F)(F)F)cc2)C1` [Example 76, (1r,3r)-N-((6-fluoroisoquinolin-5-yl)methyl)-3-(4-(trifluoromethyl)phenoxy)cyclobutan-1-amine, HCl] here?
**A.** The IC50 was 0.0277 µM.

**Q.** With `Fc1cccc(O[C@H]2C[C@H](NCc3c(F)ccc4cnccc34)C2)c1F` [Example 35, (1r,3r)-3-(2,3-difluorophenoxy)-N-((6-fluoroisoquinolin-5-yl)methyl)cyclobutan-1-amine] as the compound, how does the IC50 read?
**A.** The IC50 was 0.128 µM.

**Q.** For `[O-][n+]1ccc2c(CN[C@H]3C[C@H](Oc4ccc(F)c(C(F)(F)F)c4)C3)c(F)ccc2c1` [Example 73, 6-fluoro-5-((((1r,3r)-3-(4-fluoro-3-(trifluoromethyl)phenoxy)cyclobutyl)amino)methyl)isoquinoline 2-oxide], which IC50 is on record?
**A.** The IC50 was 0.193 µM.

**Q.** For `Nc1cc2c(CN[C@H]3C[C@H](Oc4ccc(F)c(C(F)(F)F)c4)C3)c(F)cc([C@@H](O)CO)c2cn1` (single isomer, unassigned; peak 1) [Example 21 peak 1], which IC50 is on record?
**A.** The IC50 was 0.00442 µM.

**Q.** Which IC50 does the source give for `Fc1ccc2cnccc2c1CN[C@H]1C[C@H](Oc2nc3ccccc3s2)C1` [Example 96, (1r,3r)-3-(benzo[d]thiazol-2-yloxy)-N-((6-fluoroisoquinolin-5-yl)methyl)cyclobutan-1-amine, HCl] here?
**A.** The IC50 was 0.747 µM.

**Q.** With `Nc1nccc2c(CN[C@H]3C[C@H](Oc4ccc(F)c(C(F)(F)F)c4)C3)cccc12` [Example 109, 5-((((1r,3r)-3-(4-fluoro-3-(trifluoromethyl)phenoxy)cyclobutyl)amino)methyl)isoquinolin-1-amine] as the compound, how does the IC50 read?
**A.** The IC50 was 1.46 µM.

**Q.** For `N#Cc1c(O[C@H]2C[C@H](NCc3c(F)ccc4cnccc34)C2)cccc1C(F)(F)F` [Example 61, 2-((1r,3r)-3-(((6-fluoroisoquinolin-5-yl)methyl)amino)cyclobutoxy)-6-(trifluoromethyl)benzonitrile], which IC50 is on record?
**A.** Its IC50 is 0.194 µM.

**Q.** Which IC50 does the source give for `Fc1ccc2cnccc2c1CN[C@H]1C[C@H](Oc2cccc(OC(F)(F)F)c2)C1` [Example 37, (1r,3r)-N-((6-fluoroisoquinolin-5-yl)methyl)-3-(3-(trifluoromethoxy)phenoxy)cyclobutan-1-amine, HCl] here?
**A.** Its IC50 is 0.0813 µM.

**Q.** With `Cc1cc(C)cc(O[C@H]2C[C@H](NCc3c(F)ccc4cnccc34)C2)c1` [Example 84, (1r,3r)-3-(3,5-dimethylphenoxy)-N-((6-fluoroisoquinolin-5-yl)methyl)cyclobutan-1-amine, HCl] as the compound, how does the IC50 read?
**A.** The IC50 was 0.722 µM.

**Q.** With `CC(=O)NCC(O)c1cc(F)c(CN[C@H]2C[C@H](Oc3ccc(F)c(C(F)(F)F)c3)C2)c2ccncc12` (stereo partly drawn) [Example 70, N-(2-(6-fluoro-5-((((1r,3r)-3-(4-fluoro-3-(trifluoromethyl)phenoxy)cyclobutyl)amino)methyl)isoquinolin-8-yl)-2-hydroxyethyl)acetamide] as the compound, how does the IC50 read?
**A.** The IC50 was 0.402 µM.
